In patent publication US6911432B2, “Drugs, foods or drinks with the use of algae-derived physiologically active substances” (priority 1997, dated 2005):

Columns and labels:
[1] = system: RAW 264.7 cells; assay: NO production induced by LPS, NO2- concentration in medium; type: cell-based, mouse; details: RAW 264.7; 10 μl of 5000 to 50 μM solution per 500 μl well; 12 hours
Description: (1) RAW 264.7 cells (ATCC TIB 71) were suspended in phenol red-free Dulbecco's modified Eagle's medium containing 10% fetal bovine serum (manufactured by Gibco) and 2 mM L-glutamine (manufactured by Life Technologies Oriental, 25030-149) at a concentration of 3×10^5 cells/ml, and 500 μl portions thereof were seeded to respective wells of a 48-well microtiter plate and incubated at 37° C. for 12 hours in the presence of 5% CO2. To each well were added 10 μl of 25 μg/ml lipopolysaccharide (LPS, manufactured by Sigma, L-2012) and 10 μl of aqueous 5000, 1500, 500, 150 or 50 μM agarobiose or neoagarobiose (manufactured by Sigma, G4410) solution, and the plate was incubated for additional 12 hours. Then, concentration of NO2^− produced by oxidation of NO in the medium was measured. As control groups, a group to which LPS was not added and a group to which agarobiose or neoagarobiose was not added were provided.
After incubating as described above, 100 μl of 4% Greece reagent (manufactured by Sigma, G4410) was added to 100 μl of the medium, and the mixture was allowed to stand for 15 minutes at room temperature. Then, the absorbance at 490 nm was measured. NO2^− concentration in the medium was calculated with reference to a calibration curve prepared by using NaNO2 at given concentrations dissolved in the same medium as that described above. All the measurements were carried out in triplicate.
(2) A suspension of 5 g of commercially available agar (Ina agar type S-7, manufactured by Ina Shokuhin Kogyo) in 45 ml of 0.1 N HCl was treated at 95° C. for 13 minutes. After cooling to room temperature, the suspension was neutralized with NaOH and filtered through 0.22 μm MILLEX-GP filter (manufactured by Milipore, SLGPR25LS). […] Namely, 10 μl of 25 μg/ml LPS and 10 μl of a 20-fold dilution of the sample mentioned above were added to wells of a 48 well microtiter plate containing RAW264.7 cells which had been incubated in the wells. The measurement was carried out with the culture medium. As control groups, a group to which LPS was not added, a group to which a sample was not added and a group to which 2.5 mM citric acid was added were provided. All the measurement were carried out in duplicate.

[2] = system: RAW 264.7 cells; assay: NO production induced by LPS and IFN-γ after pre-incubation with sample; type: cell-based, mouse; details: 10 μl of 5,000 μM solution, pre-incubation 1, 2, 4 or 6 hours before stimulation
Description: (4) RAW 264.7 cells were suspended in the Dulbecco's modified Eagle's medium described in Example 20-(1) at a concentration of 3×10^5 cells/ml, and 500 μl portions thereof were placed in respective wells of a 48 well microtiter plate. The plate was incubated for 37° C. for 10 hours in the presence of 5 % carbon dioxide. To the wells was added 10 μl of aqueous 5,000 μM agarobiose solution and incubated for additional 1, 2, 4 or 6 hours. Then, the culture supernatant was removed from the well and to each well were added 500 μl of fresh Dulbecco's modified Eagle's medium and then 10 μl of aqueous 2.5 μg/ml LPS and aqueous 800 U/ml interferon-Υ (IFN-Υ, sold by Cosmobio, GZM-MG-IFN) solution. The plate was incubated for 1 hour. Then, the culture supernatant was removed from the well and to each well was added 500 μl of fresh Dulbecco's modified Eagle's medium and the plate was incubated for additional 16 hours. The concentration of NO2^− produced by oxidation of NO in the medium was measured according to the same manner as that described in Example 20-(1). As control groups, a group to which neither LPS nor IFN-Υ was added and a group to which agarobiose was not added were provided. All the measurements were carried out in duplicate.

[3] = system: HL-60 cells; assay: apoptosis-inducing assay, cell morphology under an optical microscope; type: cell-based, human
Description: Human promyelocytic leukemia cell HL-60 (ATCC CCL-240) was incubated at 37° C. in RPMI 1640 medium (manufactured by Gibco) supplemented with 10% of fetal bovine serum (JRH Bioscience) which had been treated at 56° C. for 30 minutes, and suspended in the same medium at a concentration of 500 cells/90 μl. Each 90 μl portion of the suspension was distributed into each well of a 96 well plate (manufactured by Falcon). To the suspension in each well was added 10 μl of the above-mentioned acid decomposition solution, a 10-fold dilution of the solution or water, and incubated with 5% CO2 at 37° C. After 24 hour and 48 hour from the initiation of the incubation, the cell morphology was observed under an optical microscope. Then, according to the MTT method described in “Apoptosis Jikken Protocol” (Syuzyun-sha, Tanuma, Seiichi ed., pp. 156 (1994)), 5 mg/ml of 3-(4,5-dimethylthiazole-2-yl)-2,5-diphenyltetrazolium bromide (manufactured by Sigma) and 10 μl of phosphate buffered saline solution were added to the culture and the incubation was continued for additional 4 hours. Then, 100 μl of 2-propanol containing 0.04 N hydrochloric acid was added to the culture, and the mixture was thoroughly stirred. An absorbance at 590 nm was measured and the number of viable cells was calculated from the absorbance measured for each of the wells, which was compared each other.
Each elution peak was fractionated, collected, evaporated to dryness under reduced pressure and then dissolved in 300 μl of water. Each fraction was sterilized by filtration and its 10 μl portion was placed in a well of a 96 well microtiter plate. Then, 90 μl of RPMI 1640 medium (manufactured by Nissui) containing 10% fetal bovine serum (manufactured by Gibco) and 5,000 HL-60 cells (ATCC CCL-240) was added thereto, followed by incubation at 37° C. for 48 hours with 5% CO2. The cell morphology was observed under an optical microscope. Then, 5 mg/ml 3-(4,5-dimethylthiazole-2-yl)-2,5-diphenyltetrazolium bromide and 10 μl of phosphate buffered saline solution were added thereto and the incubation was continued for additional 4 hours. To the culture was added 100 μl of 2-propanol containing 0.04 N hydrochloric acid and the resultant mixture was thoroughly stirred. The absorbance at 590 nm was measured to determine a cell proliferation rate.

In the case of `OC[C@H]1O[C@@H](O[C@H]2[C@H]3OC[C@@H]2OC(O)[C@H]3O)[C@H](O)[C@@H](O)[C@H]1O` (mixture of isomers) [Agarobiose, agarobiose], the “inhibition of NO production induced by LPS (in words)” value [1] is reported as “dose-dependently inhibited”, the “inhibition of NO production induced by LPS and IFN-γ (in words)” value [2] is reported as “the longer the pre-incubation time was, the higher the inhibition” and the “apoptosis corpuscles under an optical microscope” value ([3]; 78 μg/ml) is reported as “apoptosis corpuscles were observed”. The “apoptosis-inducing activity (apoptosis corpuscles, in words)” value ([3]; preparations and fractions) was “had both activities”.
